# In US7741124B2, “Detection procedures for fibrinogen and/or fibrinogen derivatives” (priority 2003, dated 2010):
# Target: T1, plasmatic fibrinogen (Homo sapiens, UniProt P02671+P02675+P02679)
# T1 construct: pooled patient plasma (P-Pool, n=32 single plasmas); from tissue; host or cells: pooled citrated patient plasma (P-Pool, Fbgen-Pool-Plasma)
# T1 sequence (P02671 20-644 isoform P02671-2 limits assumed): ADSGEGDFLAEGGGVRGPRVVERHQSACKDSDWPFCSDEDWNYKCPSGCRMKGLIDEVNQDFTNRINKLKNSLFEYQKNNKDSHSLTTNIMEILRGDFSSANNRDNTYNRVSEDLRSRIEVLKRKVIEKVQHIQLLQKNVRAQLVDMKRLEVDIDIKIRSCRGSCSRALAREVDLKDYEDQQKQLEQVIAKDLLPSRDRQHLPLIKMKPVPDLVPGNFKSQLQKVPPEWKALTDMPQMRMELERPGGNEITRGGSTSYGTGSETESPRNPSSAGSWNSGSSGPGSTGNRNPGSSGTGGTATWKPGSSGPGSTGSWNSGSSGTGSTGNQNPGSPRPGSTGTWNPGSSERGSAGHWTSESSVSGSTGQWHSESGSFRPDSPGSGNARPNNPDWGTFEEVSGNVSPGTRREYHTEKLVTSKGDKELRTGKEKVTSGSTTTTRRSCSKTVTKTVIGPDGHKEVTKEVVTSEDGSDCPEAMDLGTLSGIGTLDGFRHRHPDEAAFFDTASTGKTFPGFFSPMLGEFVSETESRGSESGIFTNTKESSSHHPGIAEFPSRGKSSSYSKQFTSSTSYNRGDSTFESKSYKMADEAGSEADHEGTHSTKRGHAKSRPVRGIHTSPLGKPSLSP
# T1 sequence (P02675 31-491): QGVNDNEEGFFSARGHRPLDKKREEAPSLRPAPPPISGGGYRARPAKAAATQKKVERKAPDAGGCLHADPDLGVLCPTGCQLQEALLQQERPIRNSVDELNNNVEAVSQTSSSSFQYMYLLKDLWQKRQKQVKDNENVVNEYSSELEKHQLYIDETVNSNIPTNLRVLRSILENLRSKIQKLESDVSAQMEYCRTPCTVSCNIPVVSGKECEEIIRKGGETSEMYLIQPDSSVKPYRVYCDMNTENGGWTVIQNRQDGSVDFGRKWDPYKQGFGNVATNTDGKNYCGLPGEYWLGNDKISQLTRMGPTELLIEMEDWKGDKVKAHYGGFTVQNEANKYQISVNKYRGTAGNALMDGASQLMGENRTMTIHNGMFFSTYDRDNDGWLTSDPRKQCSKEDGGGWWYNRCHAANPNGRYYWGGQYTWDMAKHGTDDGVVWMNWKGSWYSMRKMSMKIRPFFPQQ
# T1 sequence (P02679 27-437 isoform P02679-2 limits assumed): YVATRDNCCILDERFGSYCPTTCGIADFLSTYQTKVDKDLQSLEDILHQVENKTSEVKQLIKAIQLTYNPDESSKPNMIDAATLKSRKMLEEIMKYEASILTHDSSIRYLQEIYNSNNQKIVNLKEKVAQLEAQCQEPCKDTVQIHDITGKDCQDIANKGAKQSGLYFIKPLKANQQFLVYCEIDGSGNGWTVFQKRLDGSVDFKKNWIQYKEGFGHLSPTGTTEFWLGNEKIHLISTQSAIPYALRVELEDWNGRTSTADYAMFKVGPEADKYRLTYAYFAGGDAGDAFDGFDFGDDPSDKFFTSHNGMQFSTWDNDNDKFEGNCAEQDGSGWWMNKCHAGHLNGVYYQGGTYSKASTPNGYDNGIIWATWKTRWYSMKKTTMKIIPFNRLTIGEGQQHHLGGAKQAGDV
# Type: biochemical
# Method: 25 μl of 143% (4.0 g/l) P-Pool were incubated with 25 μl 0-50 mM vancomycin in PBS, 50 μl PBS, 0.1% Triton X 100® and 50 μl 850 mM KCl in H2O for 1 min (RT). The turbidity at 405 nm was determined. […] For pH-studies 5 ml P-Pool were mixed with 5 ml PBS and 0-1750 μl 1 M NaHCO3, pH 8.6.
# 5 ml P-Pool were incubated with 5 ml 4.4 mM vancomycin in PBS for 3 min (RT). Then the reaction mixture was centrifuged at 2500 g (4000 rpm) for 10 min. The supernatant was separated from the precipitate. The precipitate was not washed or was washed 3× with dest. H2O (resuspension, centrifugation, resuspension, . . . ). The unwashed precipitate was solubilized by addition of 500 μl 1 M NaHCO3, pH 8.6, and 4500 μl PBS; the washed precipitate was solubilized by addition of 300 μl 1 M NaHCO3 to 1700 μl in dest. H2O resuspended precipitate. 3 preparations of washed precipitate were also dried at room temperature and the dried precipitates were weighed. The solubilized precipitate and the supernatant were functionally analyzed for fibrinogen. 100 μl 1 M NaHCO3, pH 8.6 were added to 400 μl of the solubilized unwashed precipitate and this solution, the solubilized washed precipitate and the supernatant were analyzed for total protein, albumin concentration, and pseudocholinesterase activity in a Hitachi 917 analyzer, Roche, Basel, Switzerland and for vancomycin in an Integra 800 (Fluorescence Polarisation Immuno Assay); electrophoreses were performed in an agarose gel-based Hydrasis LC-Electrophoresis system (Sebia, Fulda, Germany). For control, 1 ml pooled serum was incubated with 1 ml 4.4 mM vancomycin in PBS, and the vancomycin conc. was determined.
# [1] = after 1+1 incubation with 4.4 mM vancomycin in PBS
smiles,measurement,setting,value
CN[C@H](CC(C)C)C(=O)N[C@H]1C(=O)N[C@@H](CC(N)=O)C(=O)N[C@H]2C(=O)N[C@H]3C(=O)N[C@H](C(=O)N[C@H](C(=O)O)c4cc(O)cc(O)c4-c4cc3ccc4O)[C@H](O)c3ccc(c(Cl)c3)Oc3cc2cc(c3O[C@@H]2O[C@H](CO)[C@@H](O)[C@H](O)[C@H]2O[C@H]2C[C@](C)(N)[C@H](O)[C@H](C)O2)Oc2ccc(cc2Cl)[C@H]1O [vancomycin],fibrinogen precipitated,4.4 mM vancomycin,84%
same,fibrinogen remained in the plasma,4.4 mM vancomycin,16%
same,fibrinogen remained of initial 4.0 g/l,"4.4 mM vancomycin, corrected for 1+1 dilution",0.64 g/L
same,fibrinogen conc. in the supernatant,1 part plasma and 1 part 4.4 mM vancomycin in PBS,0.32 g/L
same,increase of turbidity of citrated plasma,"25 μl 0-50 mM vancomycin, 25 μl P-Pool, 1 min RT",up to 20 fold
same,vancomycin found in pooled serum,[1],2.1 mM
same,vancomycin found in supernatant of pooled plasma,[1],0.17 mM
same,vancomycin attached to 5 μM precipitating fibrinogen,of 2.2 mM vancomycin in the reaction mixture,80 µM
same,vancomycin molecules/fibrinogen molecule,washed precipitate,16
